Reference: patent publication US20200113852A1, “METHODS OF PATIENT SELECTION AND TREATING TRXR- OR PRDX-OVEREXPRESSED CANCERS” (TRIACT THERAPEUTICS, INC., priority 2017, published 2020)

Test system: HCT116 cells
Experiment: Protein modification by Iniparib-biotin in cells (streptavidin-HRP blot, avidin pull-down LC-MS/MS)
Assay type: cell-based, human
Procedure: MDA-MB-453 and HCT116 cells were first pre-treated or not for 48 h with 1 mM BSO. Afterwards cells were incubated in serum-containing conditioned medium with increasing concentrations of Iniparib-biotin derivative for up to 4 hours.
Membranes were blotted with either Streptavidin-HRP (GE Healthcare), monoclonal antibody against GAPDH (Santa Cruz Biotechnology), polyclonal antibody raised against GSTP1 (Santa Cruz Biotechnology) or with MitoProfile® Total OXPHOS human antibody cocktail (Abcam). Detection of reactive bands was performed by enhanced chemiluminescence (West DURA substrate, Pierce, Thermo scientific).
BSO pretreated HCT116 cells were incubated for 4 h with 100 μM Iniparib-biotin. Then clarified octyl-glucoside lysates were combined with monomeric avidin-agarose and mixed overnight at 4° C. […] Final wash was performed with 0.15% octyl-glucoside, 50 mM NaCl, 10 mM Tris-HCl, pH 7.5 prior to Iniparib-biotin modified proteins' elution in 0.1 M glycine, pH 2.8, 20 min at 20° C. After pH adjustment to 8.5 by Ammonium Bicarbonate addition (50 mM final), eluted proteins were reduced (10 mM DTT, 30 min at 56° C.), alkylated (30 mM iodoacetamide, 30 min at 20° C.) and digested with trypsin (10 μg, overnight at 37° C.). Tryptic Iniparib-biotin modified peptides were further purified by monomeric avidin pull-down as described above except that the buffer used was 50 mM NaCl, 10 mM Tris-HCl, pH 7.5. After elution in 0.1 M glycine, pH 2.8, 20 min at 20° C., enriched Iniparib-biotin modified peptides were analyzed by LC-MS/MS. LC-MS/MS experiments were performed on a NanoAcquity UPLC (Waters) coupled to a hybrid LTQ Orbitrap Velos mass spectrometer (Thermo Fisher Scientific) equipped with a nanoelectrospray source. Tryptic digests were loaded onto an UPLC Trap column (Symmetry C18, 5 μm, 180 μm×20 mm, Waters) and washed with 0.2% formic acid at 20 μL/min for 5 min. […] The exact parent mass is the ^12C isotope ion mass of the most intense isotopic pattern detected on the high resolution Orbitrap MS parallel scan and included in the MS/MS selection window.

In the case of O=C(CCCC[C@@H]1SC[C@@H]2NC(=O)N[C@@H]21)NCCNC(=O)c1ccc(I)c([N+](=O)[O-])c1 [Iniparib-biotin, 4-iodo-3-nitro-N-(2-(5-((3 aS,4S,6aR)-2-oxohexahydro-1H-thieno[3,4-d]imidazol-4-yl)pentanamido)ethyl)benzamide], the “cellular proteins bearing Iniparib adducts” value (BSO pretreated HCT116, 100 μM 4 h, MS/MS qualitative analysis) is reported as “more than 200 cellular proteins”, the “protein labeling with Iniparib-biotin” value (HCT116 cells depleted of GSH, up to 100 μM, up to 4 h) is reported as “strong protein labeling” and the “protein modifications by Iniparib-biotin” value (HCT116 cells not depleted of GSH) is reported as “barely detectable”.
